# Reference: US20210369615A1, “SOLID ORAL FORMULATIONS OF AMPHOTERICIN B” (iCo Therapeutics Inc., priority 2018, published 2021)
# Several values for one entry are separate records, joined by “and”; a condition that tells them apart may be missing. Equal values may be shown once.
# Assay: Phase 1 single dose escalation pharmacokinetic study, Amphotericin B in human plasma
# Type: in vivo
# Conditions: for Amphotericin B concentration: 800 mg dose
# Experimental: A phase 1, randomized, double-blind, placebo-controlled, single dose escalation study was performed to evaluate the pharmacokinetic parameters after administration of a single dose of Formula 1A. 100 mg (FIG. 10A), 200 mg (FIG. 10B), 400 mg (FIG. 10C) and 800 mg (FIG. 10D) doses were investigated in this study.
# For each dose, AmpB or a placebo was administered, and blood samples were obtained pre-dose, and post-dosing at 0.5 hr, 1 hr, 2 hr, 3 hr, 4 hr, 6 hr, 8 hr, 10 hr, 12 hr, 24 hr, 36 hr, 48 hr, 60 hr, 72 hr, 144 hr, and 192 hr. Pharmacokinetic analysis was performed using Phoenix™ WinNonlin® (Pharsight Corporation). Doses and sampling times were entered as provided by the sponsor. Dose normalised parameters, and descriptive statistics were calculated using Phoenix™ WinNonlin®.
# Where Ct is the last measurable concentration and Kel is the elimination rate constant estimated using log-linear regression during the terminal elimination phase. • t½: Elimination half-life, determined by ln(2)/Kel • CL/f: Observed Systemic clearance, calculated as dose/AUC • Vz: Observed Volume of distribution during the terminal phase, calculated as CL/Kel
# [1] = single 100 mg dose (Formula 1A), Geometric Mean, N 6
# [2] = single 100 mg dose (Formula 1A), Mean, N 6
# [3] = single 100 mg dose (Formula 1A), Median, N 6
# [4] = single 100 mg dose (Formula 1A), individual subjects A, B, C, D, F, H
# [5] = single 200 mg dose (Formula 1A), Geometric Mean, N 6
# [6] = single 200 mg dose (Formula 1A), Mean, N 6
# [7] = single 200 mg dose (Formula 1A), Median, N 6
# [8] = single 200 mg dose (Formula 1A), individual subjects I, 3, K, M, N, P
# [9] = single 400 mg dose (Formula 1A), Geometric Mean, N 6
# [10] = single 400 mg dose (Formula 1A), Mean, N 6
# [11] = single 400 mg dose (Formula 1A), Median, N 6
# [12] = single 400 mg dose (Formula 1A), individual subjects R, S, T, U, V, W
smiles,measurement,setting,value
C[C@@H]1[C@H](O)[C@@H](C)/C=C/C=C/C=C/C=C/C=C/C=C/C=C/[C@H](O[C@@H]2O[C@H](C)[C@@H](O)[C@H](N)[C@@H]2O)C[C@@H]2O[C@](O)(C[C@@H](O)C[C@@H](O)[C@H](O)CC[C@@H](O)C[C@@H](O)CC(=O)O[C@H]1C)C[C@H](O)[C@H]2C(=O)O [Amphotericin B],Amphotericin B concentration,"nominal hour 0.5, individual subjects",BQL
same,Amphotericin B concentration,"nominal hour 1, individual subjects",0.791 ng/mL and BQL (5×)
same,Amphotericin B concentration,"nominal hour 2, individual subjects",7.683 ng/mL and 8.234 ng/mL and 2.414 ng/mL and 5.164 ng/mL and 3.206 ng/mL and 4.175 ng/mL
same,Amphotericin B concentration,"nominal hour 4, individual subjects",16.397 ng/mL and 28.318 ng/mL and 18.814 ng/mL and 17.942 ng/mL and 23.486 ng/mL and 20.176 ng/mL
same,Amphotericin B concentration,"nominal hour 6, individual subjects",29.902 ng/mL and 40.067 ng/mL and 30.628 ng/mL and 24.140 ng/mL and 33.962 ng/mL and 31.375 ng/mL
same,Amphotericin B concentration,"nominal hour 8, individual subjects",22.535 ng/mL and 31.543 ng/mL and 30.838 ng/mL and 27.279 ng/mL and 39.722 ng/mL and 22.816 ng/mL
same,Amphotericin B concentration,"nominal hour 10, individual subjects",21.595 ng/mL and 29.990 ng/mL and 25.996 ng/mL and 32.914 ng/mL and 42.805 ng/mL and 22.226 ng/mL
same,Amphotericin B concentration,"nominal hour 12, individual subjects",21.001 ng/mL and 31.865 ng/mL and 22.810 ng/mL and 27.866 ng/mL and 40.021 ng/mL and 21.390 ng/mL
same,Amphotericin B concentration,"nominal hour 24, individual subjects",16.218 ng/mL and 14.674 ng/mL and 23.607 ng/mL and 14.816 ng/mL and 19.124 ng/mL and 26.064 ng/mL
same,Amphotericin B concentration,"nominal hour 36, individual subjects",10.661 ng/mL and 16.074 ng/mL and 13.715 ng/mL and 9.365 ng/mL and 12.504 ng/mL and 19.218 ng/mL
same,Amphotericin B concentration,"nominal hour 48, individual subjects",6.472 ng/mL and 12.880 ng/mL and 12.291 ng/mL and 7.395 ng/mL and 8.947 ng/mL and 13.166 ng/mL
same,Amphotericin B concentration,"nominal hour 63, individual subjects",6.398 ng/mL and 10.642 ng/mL and 7.859 ng/mL and 3.935 ng/mL and 6.865 ng/mL and 9.972 ng/mL
same,Amphotericin B concentration,"nominal hour 72, individual subjects",5.044 ng/mL and 10.165 ng/mL and 6.793 ng/mL and 2.412 ng/mL and 3.808 ng/mL and 8.297 ng/mL
same,Amphotericin B concentration,"nominal hour 144, individual subjects",0.539 ng/mL and 2.254 ng/mL and 1.380 ng/mL and 0.329 ng/mL and 0.518 ng/mL and 1.905 ng/mL
same,Amphotericin B concentration,"nominal hour 192, individual subjects",BQL (3×) and 0.726 ng/mL and 0.132 ng/mL and 0.243 ng/mL
same,Amphotericin B concentration,"pre-dose, individual subjects",BQL
same,% AUCexp,[1],16.37%
same,AUCO-inf,[1],1155.07 ng·h/mL
same,AUCO-t,[1],865.75 ng·h/mL
same,CL/F,[1],86574.82 mL/h
same,Cmax,[1],29.45 ng/mL
same,Kel,[1],0.02 h⁻¹
same,Tmax,[1],6.00 h
same,T½,[1],28.42 h
same,V/F,[1],3549117.10 mL
same,% AUCexp,[2],23.01%
same,AUCO-inf,[2],1329.45 ng·h/mL
same,AUCO-t,[2],912.51 ng·h/mL
same,CL/F,[2],96064.72 mL/h
same,Cmax,[2],30.22 ng/mL
same,Kel,[2],0.03 h⁻¹
same,Tmax,[2],6.00 h
same,T½,[2],31.80 h
same,V/F,[2],3656853.27 mL
same,% AUCexp,[3],16.74%
same,AUCO-inf,[3],1029.80 ng·h/mL
same,AUCO-t,[3],759.65 ng·h/mL
same,CL/F,[3],102549.85 mL/h
same,Cmax,[3],28.02 ng/mL
same,Kel,[3],0.03 h⁻¹
same,Tmax,[3],6.00 h
same,T½,[3],27.27 h
same,V/F,[3],3591414.60 mL
same,% AUCexp,[4],12.17% and 44.38% and 21.32% and 9.08% and 47.20% and 3.91%
same,AUCO-inf,[4],723.90 ng·h/mL and 1362.29 ng·h/mL and 1267.06 ng·h/mL and 788.16 ng·h/mL and 3042.77 ng·h/mL and 792.54 ng·h/mL
same,AUCO-t,[4],635.82 ng·h/mL and 757.71 ng·h/mL and 996.95 ng·h/mL and 716.57 ng·h/mL and 1606.43 ng·h/mL and 761.59 ng·h/mL
same,CL/F,[4],138140.40 mL/h and 73405.78 mL/h and 78922.85 mL/h and 126877.64 mL/h and 32864.80 mL/h and 126176.85 mL/h
same,Cmax,[4],22.66 ng/mL and 24.41 ng/mL and 30.05 ng/mL and 25.98 ng/mL and 43.57 ng/mL and 34.67 ng/mL
same,Kel,[4],0.03 1/hr and 0.01 1/hr (2×) and 0.02 1/hr and 0.04 1/hr and 0.05 1/hr
same,Tmax,[4],6.00 h
same,T½,[4],22.60 h and 47.37 h and 31.94 h and 19.37 h and 55.13 h and 14.42 h
same,V/F,[4],4503070.74 mL and 5016960.70 mL and 3637239.70 mL and 3545589.51 mL and 2613781.85 mL and 2624477.13 mL
same,% AUCexp,[5],13.76%
same,AUCO-inf,[5],1040.21 ng·h/mL
same,AUCO-t,[5],822.65 ng·h/mL
same,CL/F,[5],192268.01 mL/h
same,Cmax,[5],28.66 ng/mL
same,Kel,[5],0.03 h⁻¹
same,Tmax,[5],6.29 h
same,T½,[5],25.39 h
same,V/F,[5],7043125.41 mL
same,% AUCexp,[6],19.01%
same,AUCO-inf,[6],1066.59 ng·h/mL
same,AUCO-t,[6],856.21 ng·h/mL
same,CL/F,[6],197223.58 mL/h
same,Cmax,[6],29.70 ng/mL
same,Kel,[6],0.03 h⁻¹
same,Tmax,[6],6.33 h
same,T½,[6],29.35 h
same,V/F,[6],8022007.31 mL
same,% AUCexp,[7],15.83%
same,AUCO-inf,[7],1061.32 ng·h/mL
same,AUCO-t,[7],804.02 ng·h/mL
same,CL/F,[7],189651.36 mL/h
same,Cmax,[7],28.62 ng/mL
same,Kel,[7],0.03 h⁻¹
same,Tmax,[7],6.00 h
same,T½,[7],24.59 h
same,V/F,[7],7174305.73 mL
same,% AUCexp,[8],51.97% and 15.07% and 6.50% and 16.58% and 4.05% and 19.85%
same,AUCO-inf,[8],1241.16 ng·h/mL and 1146.01 ng·h/mL and 1438.52 ng·h/mL and 737.08 ng·h/mL and 860.11 ng·h/mL and 976.64 ng·h/mL
same,AUCO-t,[8],596.14 ng·h/mL and 973.27 ng·h/mL and 1344.94 ng·h/mL and 614.86 ng·h/mL and 825.30 ng·h/mL and 782.74 ng·h/mL
same,CL/F,[8],161138.94 mL/h and 174518.59 mL/h and 139032.26 mL/h and 271340.46 mL/h and 232527.11 mL/h and 204784.12 mL/h
same,Cmax,[8],18.77 ng/mL and 27.35 ng/mL and 42.46 ng/mL and 23.41 ng/mL and 36.31 ng/mL and 29.90 ng/mL
same,Kel,[8],0.01 1/hr and 0.03 1/hr (3×) and 0.05 1/hr (2×)
same,Tmax,[8],6.00 h and 8.00 h
same,T½,[8],68.82 h and 24.69 h and 15.32 h and 24.50 h and 15.26 h and 27.53 h
same,V/F,[8],15999011.64 mL and 6215853.68 mL and 3073693.76 mL and 9591266.45 mL and 5119460.58 mL and 8132757.78 mL
same,% AUCexp,[9],25.23%
same,AUCO-inf,[9],1799.36 ng·h/mL
same,AUCO-t,[9],1045.59 ng·h/mL
same,CL/F,[9],222300.98 mL/h
same,Cmax,[9],28.16 ng/mL
same,Kel,[9],0.02 h⁻¹
same,Tmax,[9],7.11 h
same,T½,[9],42.43 h
same,V/F,[9],13606337.94 mL
same,% AUCexp,[10],36.21%
same,AUCO-inf,[10],2494.19 ng·h/mL
same,AUCO-t,[10],1148.77 ng·h/mL
same,CL/F,[10],300584.11 mL/h
same,Cmax,[10],29.04 ng/mL
same,Kel,[10],0.02 h⁻¹
same,Tmax,[10],7.33 h
same,T½,[10],57.04 h
same,V/F,[10],15172419.27 mL
same,% AUCexp,[11],33.41%
same,AUCO-inf,[11],2029.33 ng·h/mL
same,AUCO-t,[11],1089.21 ng·h/mL
same,CL/F,[11],197696.44 mL/h
same,Cmax,[11],28.44 ng/mL
same,Kel,[11],0.02 h⁻¹
same,Tmax,[11],6.00 h
same,T½,[11],39.03 h
same,V/F,[11],12667205.14 mL
same,% AUCexp,[12],73.99% and 4.55% and 35.27% and 11.36% and 31.55% and 60.51%
same,AUCO-inf,[12],7138.99 ng·h/mL and 981.05 ng·h/mL and 1918.71 ng·h/mL and 520.98 ng·h/mL and 2265.43 ng·h/mL and 2139.96 ng·h/mL
same,AUCO-t,[12],1856.79 ng·h/mL and 936.40 ng·h/mL and 1242.03 ng·h/mL and 461.79 ng·h/mL and 1550.60 ng·h/mL and 845.03 ng·h/mL
same,CL/F,[12],56030.30 mL/h and 407726.35 mL/h and 208473.83 mL/h and 767787.87 mL/h and 176567.28 mL/h and 186919.05 mL/h
same,Cmax,[12],41.12 ng/mL and 26.38 ng/mL and 30.49 ng/mL and 21.86 ng/mL and 34.26 ng/mL and 20.15 ng/mL
same,Kel,[12],0.00 1/hr and 0.05 1/hr and 0.02 1/hr (2×) and 0.03 1/hr and 0.01 1/hr
same,Tmax,[12],10.00 h and 6.00 h
same,T½,[12],142.05 h and 13.66 h and 46.06 h and 24.18 h and 32.01 h and 84.28 h
same,V/F,[12],11482617.37 mL and 8037364.81 mL and 13851792.91 mL and 26779550.10 mL and 8154849.30 mL and 22728341.15 mL
